Data from ChEMBL document CHEMBL5131533, “Indazole and Benzoisoxazole Compounds as Dihydroorotate Dehydrogenase Inhibitors for Treating Acute Myelogenous Leukemia” (ACS Med Chem Lett, 2022).

Columns and labels:
[1] = molecular target: Dihydroorotate dehydrogenase (quinone), mitochondrial (Homo sapiens, UniProt Q02127); assay: Inhibition of human DHODH using dihydroorotate as substrate and Q6 as coenzyme by DCIP dye based spectrophotometry analysis
MOLM-13 = assay: Antiproliferative activity against human MOLM-13 cells incubated for 72 hrs by CellTiter-Glo based multilabel reader analysis; type: functional, cell-based; conditions: MOLM-13, 72 h

Dihydroorotate dehydrogenase (quinone), mitochondrial, sequence (Q02127 whole entry): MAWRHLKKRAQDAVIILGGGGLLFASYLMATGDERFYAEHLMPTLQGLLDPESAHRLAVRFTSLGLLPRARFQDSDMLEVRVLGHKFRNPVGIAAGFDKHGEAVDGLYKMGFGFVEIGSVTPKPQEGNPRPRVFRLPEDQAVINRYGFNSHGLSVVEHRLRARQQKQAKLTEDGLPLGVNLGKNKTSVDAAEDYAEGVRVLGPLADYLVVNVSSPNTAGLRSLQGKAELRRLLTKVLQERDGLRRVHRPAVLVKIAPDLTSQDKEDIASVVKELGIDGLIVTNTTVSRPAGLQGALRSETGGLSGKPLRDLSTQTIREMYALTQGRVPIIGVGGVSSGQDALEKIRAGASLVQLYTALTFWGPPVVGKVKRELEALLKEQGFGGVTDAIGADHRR

Q: What does the source list for `CCn1c(CO)nn(-c2cc(O[C@@H](C)C(F)(F)F)c3c(Nc4c(C)ccnc4Cl)nn(C)c3c2F)c1=O`?
A: IC50 [1]: 2 nM; IC50 (MOLM-13): 5.7 nM

Q: For `CCn1c(CO)nn(-c2cc(O[C@@H](C)C(F)(F)F)c3c(Nc4c(F)cccc4Cl)nn(C)c3c2F)c1=O`, which IC50 [1] is on record?
A: 2 nM

Q: And the IC50 (MOLM-13)?
A: 0.7 nM

Q: For `Cc1ccnc(Cl)c1Nc1nn(C)c2c(F)c(-c3cn(C)c(C(C)(C)O)n3)cc(O[C@@H](C)C(F)(F)F)c12`, which IC50 [1] is on record?
A: 1 nM

Q: What about the IC50 (MOLM-13) of the same compound?
A: 0.1 nM

Q: With `CCn1c(CO)nn(-c2cc(OC(C)C(F)(F)F)c3c(Nc4c(F)cccc4Cl)nn(C)c3c2F)c1=O` (configuration not stated) as the compound, how does the IC50 [1] read?
A: 3 nM

Q: What about the IC50 (MOLM-13) of the same compound?
A: 1.2 nM

Q: `CCn1c(CO)nn(-c2cc(OC(C)C(F)(F)F)c3c(Nc4c(F)cccc4Cl)nn(C)c3c2)c1=O` (configuration not stated) was tested. Which IC50 [1] did it give?
A: 8 nM

Q: And the IC50 (MOLM-13)?
A: 3 nM

Q: What does the source list for `CCn1c(CO)nn(-c2cc(O[C@@H](C)C(F)(F)F)c3c(Nc4c(F)cccc4Cl)noc3c2F)c1=O`?
A: IC50 [1]: 2 nM; IC50 (MOLM-13): 0.7 nM
